The test deals with L1210 Leukämiezellen. As to the kind of experiment: Colony formation of L1210 leukemia cells in soft agar (cytotoxicity in vitro). In kind it is cell-based, Maus. The following applies: Mus musculus, colonies > 60 µm counted. The source says: Die zytostatische Wirksamkeit der erfindungsgemäßen Verbindungen wurde anhand von L1210 Leukämiezellen der Maus getestet. Hierzu wurde die Koloniebildung von L1210 Leukämiezellen in Agarplatten herangezogen. Diese Methode dient zum Nachweis des Einflusses der Testsubstanzen auf das Wachstumsverhalten der Zellen über 1 Stunde oder über mehrere Generationen. Bei einer Zellzykluszeit von 10-12 Stunden werden dabei in der Testzeit von 7 Tagen etwa 14 aufeinanderfolgende Generationen beobachtet. Die erfindungsgemäßen zytostatisch wirksamen Substanzen bewirken in diesem Test eine Reduktion der zu beobachtenden Koloniezahl gegenüber einer unbehandelten Kontrollprobe.
Verfahrensweise zur Ermittlung der Koloniebildung von L1210 Leukämiezellen in Soft-Agar
500 Leukämiezellen pro Platte wurden mit unterschiedlichen Konzentrationen der Testsubstanz 1 Stunde bei 37°C inkubiert. Anschließend wurden die Zellen zweimal mit McCoy5A-Medium gewaschen und schließlich in Petrischalen nach Zugabe von 0,3 % Agar ausgegossen. Kontrollen wurden lediglich mit frischem Medium inkubiert. Anstelle der einstündigen Inkubation wurden in manchen Fällen unterschiedliche Konzentrationen und Testsubstanzen der oberen Agarschicht zugemischt, um so eine kontinuierliche Exposition der Zellen über die gesamte Inkubationszeit zu erreichen. Nach Erstarren des Agars wurden die Platten im Brutschrank 7 Tage bei 37°C inkubiert (5 Vol.-% CO₂, 95 % relative Luftfeuchtigkeit). Anschließend wurde die Zahl der entstandenen Kolonien mit einem Durchmesser von mehr als 60 µm gezählt. Die Ergebnisse wurden angegeben als Koloniezahl in behandelten Agarplatten in Prozent der unbehandelten Kontrolle. Aus der so erhaltenen Dosiswirkungskurve wurde die IC₅₀ als Maß für die Wirksamkeit der Substanz ermittelt. Die Ergebnisse für die hier beschriebenen Verbindungen im Vergleich zu Adriamycin sind in Tabelle 1 zusammengefaßt.

Where [1] appears, read: L1210, 168 h, continuous exposure (substance mixed into upper agar layer), 7 days at 37°C, read-out: Dauerinkubation IC50.
Setting [2] is: L1210, 1 h incubation at 37°C, cells washed, then 7 days in agar, read-out: 1h-Inkubation IC50.

Values after ≈ are worked out from the molar mass of the structure shown. Where two headings read alike, the source gives them in different places.

As usually defined, the IC50 is the concentration needed to halve the response being measured. For the compound `CC[C@@]1(O)C[C@H](O[C@H]2C[C@H](N(C)CC(=O)NN)[C@H](O)[C@H](C)O2)c2c(O)c3c(c(O)c2[C@H]1O)C(=O)c1cccc(O)c1C3=O` [Beispiel 1, 7-0-(3′-N-Hydrazinocarbonylmethyl-3′-N-methyl-α-L-daunosaminyl)-β-rhodomycinon], the IC50 amounted to 0.32 µg/mL (≈ 0.532 µM) under setting [1] and 0.21 µg/mL (≈ 0.349 µM) under setting [2].

For `CC[C@@]1(O)C[C@H](O[C@H]2C[C@H](N(C)CC(=O)NCCN)[C@H](O)[C@H](C)O2)c2c(O)c3c(c(O)c2[C@H]1O)C(=O)c1cccc(O)c1C3=O` [Beispiel 2, 7-0-(3′-N-Ethylendiaminocarbonylmethyl-3′-N-methyl-α-L-daunosaminyl)-β-rhodomycinon], the IC50 under setting [1] amounted to 0.35 µg/mL (≈ 0.556 µM) and the IC50 under setting [2] is 1 µg/mL (≈ 1.59 µM).

Take `CC[C@@]1(O)C[C@H](O[C@H]2C[C@H](N(C)CC(=O)NCCN(C)C)[C@H](O)[C@H](C)O2)c2c(O)c3c(c(O)c2[C@H]1O)C(=O)c1cccc(O)c1C3=O` [Beispiel 3]: the IC50 came out at 0.12 µg/mL (≈ 0.182 µM) under setting [1] and 0.26 µg/mL (≈ 0.395 µM) under setting [2].

Take `CC[C@@]1(O)C[C@H](O[C@H]2C[C@H](N(C)CC(=O)NCCCCN)[C@H](O)[C@H](C)O2)c2c(O)c3c(c(O)c2[C@H]1O)C(=O)c1cccc(O)c1C3=O` [Beispiel 4]: the IC50 came to 0.35 µg/mL (≈ 0.532 µM) under setting [1] and 1.3 µg/mL (≈ 1.98 µM) under setting [2].

`CC[C@@]1(O)C[C@H](O[C@H]2C[C@H](N(C)CC(=O)NCCc3c[nH]cn3)[C@H](O)[C@H](C)O2)c2c(O)c3c(c(O)c2[C@H]1O)C(=O)c1cccc(O)c1C3=O` [Beispiel 5, 7-O-(3′-N-Histaminocarbonylmethyl-3′-N-methyl-α-L-daunosaminyl)-β-rhodomycinon]: the IC50 was determined as 0.31 µg/mL (≈ 0.455 µM) under setting [1] and 1 µg/mL (≈ 1.47 µM) under setting [2].

Take `CC[C@@]1(O)C[C@H](O[C@H]2C[C@H](N(C)CC(=O)NCCc3ccc(O)cc3)[C@H](O)[C@H](C)O2)c2c(O)c3c(c(O)c2[C@H]1O)C(=O)c1cccc(O)c1C3=O` [Beispiel 6, 7-O-(3′-N-Methyl-3′-N-tyraminocarbonylmethyl-α-L-daunosaminyl)-β-rhodomycinon]: the IC50 under setting [1] turned out to be 0.41 µg/mL (≈ 0.58 µM) and the IC50 under setting [2] is 1.3 µg/mL (≈ 1.84 µM).

`CC[C@@]1(O)C[C@H](O[C@H]2C[C@H](N(C)CC(=O)NCCc3c[nH]c4ccccc34)[C@H](O)[C@H](C)O2)c2c(O)c3c(c(O)c2[C@H]1O)C(=O)c1cccc(O)c1C3=O` [Beispiel 7, 7-O-(3′-N-Methyl-3′-N-tryptaminocarbonylmethyl-α-L-daunosaminyl)-β-rhodomycinon]: the IC50 was 0.36 µg/mL (≈ 0.493 µM) under setting [1] and 1.2 µg/mL (≈ 1.64 µM) under setting [2].
